Assay results: patent EP1074267B1, “Induction of antigen-specific T cells by interferon” (Dainippon Sumitomo Pharma Co., Ltd., priority 1999, dated 2001)
Where no end group is shown, it is not given here.

Tested on: EL-4 cells labeled with 51Cr and pulsed with the peptide Flu366-374
Conditions: administered alone using the osmotic pump (100 µg peptide or 10^5 U IFN-α, subcutaneous, 3-day release); spleen 7 days after administration, 5 days re-stimulation; Fig. 1(A)

## ASNESMETM [peptide, Ala-Ser-Asn-Glu-Ser-Met-Glu-Thr-Met]
  peptide-specific CTL induction (cytotoxic activity for peptide-pulsed EL-4 cells): no peptide-specific CTL was induced
